One assay deals with Huh-7. The experiment in a line: cells. The settings on record: Homo sapiens. Type of assay: functional, cell-based.
A short description of the next assay: cells. Type of assay: functional, cell-based. The settings on record: Homo sapiens, HCCC9810.
The subject of another assay is Candida albicans. As to the kind of experiment: Antifungal activity against Candida albicans MTCC 227. Type of assay: functional.
The next assay deals with Saccharomyces cerevisiae. The experiment in a line: Antifungal activity against Saccharomyces cerevisiae MTCC 170. Type of assay: functional.
Assay [1] has as its system Staphylococcus aureus. The experiment in a line: Antibacterial activity against Staphylococcus aureus by agar well diffusion method. Type of assay: functional. (In general: A growth-free zone around the sample is the usual read-out of agar diffusion tests.)
Assay [2] concerns Escherichia coli. The experiment in a line: Antibacterial activity against Escherichia coli by agar well diffusion method. It is filed as functional.
Assay [3] deals with Bacillus subtilis. As to the kind of experiment: Antibacterial activity against Bacillus subtilis by agar well diffusion method. It is filed as functional.
Assay [4] is described as follows: Antiproliferative activity against human U87 cells. It is filed as functional, cell-based, U-87MG ATCC. The settings on record: U-87 MG.
The target of assay [5] is T1, NAD-dependent protein deacetylase sirtuin-2 (Homo sapiens, UniProt Q8IXJ6).
T1 sequence (Q8IXJ6 whole entry): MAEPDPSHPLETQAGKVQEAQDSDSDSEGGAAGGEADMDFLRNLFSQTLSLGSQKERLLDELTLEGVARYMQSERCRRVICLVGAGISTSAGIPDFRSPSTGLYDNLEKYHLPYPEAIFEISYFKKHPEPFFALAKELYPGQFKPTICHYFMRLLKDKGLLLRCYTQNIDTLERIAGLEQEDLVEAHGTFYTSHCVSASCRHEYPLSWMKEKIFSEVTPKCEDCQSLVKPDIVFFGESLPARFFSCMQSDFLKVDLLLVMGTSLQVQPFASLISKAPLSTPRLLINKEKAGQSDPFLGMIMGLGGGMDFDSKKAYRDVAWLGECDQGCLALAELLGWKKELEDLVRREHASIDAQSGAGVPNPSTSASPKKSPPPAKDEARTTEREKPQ
As to the kind of experiment: Inhibition of sirtuin 2 (unknown origin).

The test system of assay [6] is Tobacco mosaic virus. As to the kind of experiment: Antiviral activity against Tobacco mosaic virus assessed as inactivation effect relative to control. Type of assay: functional.
Assay [7] concerns Tobacco mosaic virus. The experiment in a line: Antiviral activity against Tobacco mosaic virus assessed as curative effect relative to control. It is filed as functional.
Assay [8] deals with Tobacco mosaic virus. The experiment in a line: Antiviral activity against Tobacco mosaic virus assessed as protection effect relative to control. It is filed as functional.
The subject of a further assay is MCF7. As to the kind of experiment: Cytotoxicity against human MCF7 cells. It is filed as functional, cell-based.
The subject of assay [9] is A549. As to the kind of experiment: Cytotoxicity against human A549 cells. Type of assay: functional, cell-based.
The next assay deals with HeLa. As to the kind of experiment: Cytotoxicity against human HeLa cells. Type of assay: functional, cell-based.
For assay [10], the system named is HCT-116. The experiment in a line: Antiproliferative activity against human HCT-116 cells. It is filed as functional, cell-based.
In the next assay the test system is HepG2. As to the kind of experiment: cells. The conditions noted are these: Homo sapiens. Type of assay: functional, cell-based.
Another assay deals with PC-3. The experiment in a line: Antiproliferative activity against human PC-3 cells. Type of assay: functional, cell-based.
Assay [11] deals with Bacillus subtilis. The experiment in a line: Antibacterial activity against Bacillus subtilis. Type of assay: functional.
Assay [12] concerns Escherichia coli. The experiment in a line: microbe, parasite or virus in culture.
For assay [13], the system named is Staphylococcus aureus. As to the kind of experiment: microbe, parasite or virus in culture.
Assay [14] has as its system HCT-116. The experiment in a line: Cytotoxicity against human HCT-116 cells. It is filed as functional, cell-based.
The test system of assay [15] is A549. As to the kind of experiment: Antiproliferative activity against human A549 cells. It is filed as functional, cell-based.
The next assay relates to K562. As to the kind of experiment: Antiproliferative activity against human K562 cells. It is filed as functional, cell-based.

These results are taken from ChEMBL document CHEMBL5226286, “The application of isatin-based multicomponent-reactions in the quest for new bioactive and druglike molecules” (Eur J Med Chem, 2021).

Converted amounts (≈) assume the structure as drawn.

Description for HepG2: Antiproliferative activity against human HepG2 cells
Description for Huh-7: Antiproliferative activity against human Huh-7 cells

As for `CNC(=O)c1cc(Oc2ccc(NC(=O)Nc3ccc(Cl)c(C(F)(F)F)c3)cc2)ccn1` [SORAFENIB], the values for the IC50 with Huh-7 and in the assay “cells” were 7.1 µM and > 10 µM, respectively.
With `COc1ccc(-n2cc(CN3C(=O)C4(C(C#N)=C(N)OC5=C4C(=O)CCC5)c4ccccc43)nn2)cc1` (centres undefined), the MIC turned out to be 128 µg/mL (≈ 259 µM) against Candida albicans and 64 µg/mL (≈ 129 µM) in the assay with Saccharomyces cerevisiae.
On to `O=C1CCCC2=C1C1(C(=O)N2c2ccc(Cl)cc2)C2=C(Nc3ccc([N+](=O)[O-])cc31)c1ccccc1C2=O` (centres undefined), for which the MIC with Staphylococcus aureus [1] was 32 µg/mL (≈ 61.1 µM); with Escherichia coli [2], 128 µg/mL (≈ 244 µM); against Bacillus subtilis [3], 32 µg/mL (≈ 61.1 µM).
In turn, `CC1(C)CC(=O)C2=C(C1)OC(N)=C(C#N)C21C(=O)N(CCCCCCCCCCBr)c2ccccc21` (centres undefined) had an IC50 in [4] of 2.5 µM.
Compound `CCOC(=O)C1=C(N)Oc2cc(C)oc(=O)c2C12C(=O)N(Cc1ccccc1)c1ccccc12` (centres undefined) registered an IC50 in [5] of 126 µM.
Take `O=NN(CCCl)C(=O)NCCCl` [CARMUSTINE]: it took 3.9 µM to reach half-maximal inhibition in assay [4] (IC50).
For `CN1C[C@@H](c2ccccc2)[C@@]2(Oc3cc(O)ccc3C2=O)[C@@]12C(=O)N(Cc1ccccc1)c1ccccc12`, the Activity worked out at 57.1% in the assay on Tobacco mosaic virus [6], 52.3% in the assay on Tobacco mosaic virus [7] and 50.9% in the assay with Tobacco mosaic virus [8].
Consider `CCOC(=O)C1=C(C(=O)OCC)C2(C(=O)Nc3ccccc32)N2CCCC12` (centres undefined), for which the IC50 came to 3.3 µM in the assay with MCF7, 2 µM in the assay with A549 [9] and 8.3 µM in the assay on HeLa.
Turning to `O=C1OC(c2ccccc2)=N[C@@]12[C@H](c1ccc(C(F)(F)F)cc1)[C@H]1CCCN1[C@]21C(=O)Nc2ccccc21`, the IC50 with Huh-7 was determined as 7.9 µM; in “cells”, 7.2 µM.
As to `O=C(c1c[nH]c2ccccc12)[C@@H]1[C@@H](c2ccc(C(F)(F)F)cc2)[C@@H]2CSCN2[C@@]12C(=O)Nc1ccccc12`, the IC50 was 7 µM in the assay on HCT-116 [10], 5.5 µM with HepG2 and 6 µM in the assay with PC-3.
As for `Cc1nn(-c2ccccc2)c2c1C1(C(=O)Nc3ccc(Br)cc31)C1=C(CCCC1=O)O2` (centres undefined), the MIC against Bacillus subtilis [11] came out at 12 µg/mL (≈ 25.2 µM); with Escherichia coli [12], 256 µg/mL (≈ 537 µM); against Staphylococcus aureus [13], 128 µg/mL (≈ 269 µM).
Consider `CCOC(=O)C1=C(N)Oc2c(c(=O)oc3cc(Cl)ccc23)C12C(=O)Nc1ccc(C)cc12` (centres undefined), for which, in assay [5], the IC50 was 118 µM.
Compound `O=C(c1c(O)c2ccccc2[nH]c1=O)[C@@H]1[C@@H](c2ccccc2Cl)C(c2ccccc2)N[C@@]12C(=O)Nc1ccccc12` (some centres undefined) registered an IC50 in the assay on HCT-116 [14] of 7.1 µM.
Turning to `Cc1noc([C@H]2[C@H](c3ccc(Cl)cc3Cl)CN(C)[C@]23C(=O)Nc2ccc(Cl)cc23)c1[N+](=O)[O-]`, the IC50 in the assay with A549 [15] amounted to 21.5 µM; in the assay on K562, 10.7 µM; with PC-3 it was 13.1 µM.
In the case of `O=C(c1c[nH]c2ccccc12)[C@@H]1[C@@H](c2ccc(Cl)cc2Cl)[C@@H]2CSCN2[C@@]12C(=O)Nc1ccccc12`, the IC50 with HCT-116 [10] came out at 9 µM; in the assay on HepG2 it was 7 µM; with PC-3 it was 6 µM.
Take `COc1ccc(-n2cc(CN3C(=O)C4(C(C#N)=C(N)OC5=C4C(=O)CC(C)(C)C5)c4ccccc43)nn2)cc1` (centres undefined): the results for the MIC in the assay with Candida albicans and in the assay with Saccharomyces cerevisiae were 128 µg/mL (≈ 245 µM) and 64 µg/mL (≈ 122 µM), respectively.

As a reminder, the IC50 is the midpoint of a concentration-inhibition curve.
